Data as given in patent publication US10800816B2 (Baxalta GmbH, priority 2012, dated 2020).
pEC50: −log10 of the molar value. Where a SMILES comes first, the peptide text is derived from it. Bridges are numbered along the chain shown (N, C = ends). [ ]: non-standard residue; d: D form. The star is where a group is joined. Succinimide(1-Et,3-yl) = CCN1C(=O)CC(*)C1=O; Bta = N[C@@H](Cc1csc2ccccc12)C(=O)O; Tle = CC(C)(C)[C@H](N)C(=O)O; hCys = N[C@@H](CCS)C(=O)O; Hexanoyl = CCCCCC(=O)*; Aib = CC(C)(N)C(=O)O; Acm = CC(=O)NC*; Sar = CNCC(=O)O

How the values were obtained:
[1] = FIGURE 78AA
From the text: Table printed on a drawing sheet, FIGURE 78AA
First reader's note: Continued from the previous sheet: the first body row (73.35) belongs to a compound listed there; cells with several numbers hold the single replicate values behind the mean.

[2] = tested on: TFPI; test: % Inhibition @ 0.63µM
[3] = tested on: TFPI; test: % Inhibition @ 2.5µM
[4] = tested on: TFPI; test: FXa Inhibition assay | EC50 (µM)
[5] = FIGURE 78X
[6] = tested on: TFPI; test: Progress Curves of Inhibition of FXa | % Inhibit (2.5μM)
Method: Head of the field: Progress Curves of Inhibition of FXa | % Inhibit (2.5μM)

[7] = tested on: TFPI; test: Extrinsic Tenase Inhibition assay | % Inhibition @ 2.5μM
[8] = mouse, plasma, 24 h
[9] = in vitro; conditions: human, plasma
[10] = tested on: TFPI; test: % Inhibition @ 2.5µM; remark: listed apart in the source
[11] = tested on: TFPI; test: % Inhibition @ 0.63µM; remark: listed apart in the source

Compound: CCCCCC(=O)N[C@@H](Cc1ccccc1)C(=O)N[C@@H](CCC(N)=O)C(=O)N[C@@H](CO)C(=O)N[C@@H](CCCCN)C(=O)N1CCC[C@@H]1C(=O)N[C@@H](CO)C(=O)N[C@H](C(=O)N[C@@H](Cc1c[nH]cn1)C(=O)N[C@H](C(=O)N[C@@H](CC(=O)O)C(=O)N[C@H](C)C(=O)N[C@@H](Cc1ccc(O)cc1)C(=O)N[C@@H](Cc1ccccc1)C(=O)N[C@@H](CCC(=O)O)C(=O)N[C@@H](CCCNC(=N)N)C(=O)N[C@@H](CC(C)C)C(=O)NC(C)(C)C(=O)N[C@@H](C)C(=O)N[C@@H](CCCCN)C(=O)N[C@@H](CC(C)C)C(=O)N[C@@H](CSC1CC(=O)N(CC)C1=O)C(N)=O)C(C)(C)C)C(C)C (stereo partly shown) [JBT00002546, Hex-FQSKpSVH-Tle-DaYFERL-Aib-AKLC(NEM)-NH2] (Hexanoyl-FQSK[dP]SVH[Tle]D[dA]YFERL[Aib]AKLC(Succinimide(1-Et,3-yl))-NH2)
- 24 h Human Plasma Stability | Mean Remaining [%] [1]: 87.66%
- 24 h Mouse Plasma Stability | Mean Remaining [%] [1]: 72.98%

Compound: Ac-FQSKGNVFVNGYFERLRAKL-NH2 (SEQ ID NO: 27) [JBT0472]
- % Inhibition @ […] [2]: 34%
- % Inhibition @ […] [3]: 49%
- pEC50 [4]: 6.43

Compound: Ac-FQSKGNVFVEGYFERLRAKL-NH2 (SEQ ID NO: 30) [JBT0475]
- % Inhibition @ […] [2]: 37%
- % Inhibition @ […] [3]: 50%
- pEC50 [4]: 6.60

Compound: CC(=O)N[C@@H](Cc1ccccc1)C(=O)N[C@@H](CCC(N)=O)C(=O)N[C@@H](CO)C(=O)N[C@@H](CCCCN)C(=O)N1CCC[C@@H]1C(=O)N[C@@H](CC(N)=O)C(=O)N[C@H](C(=O)N[C@@H](Cc1c[nH]cn1)C(=O)N[C@H](C(=O)N1CCC[C@H]1C(=O)N[C@@H]1CSSCC[C@@H](C(=O)N[C@@H](CCCNC(=N)N)C(=O)N[C@@H](CC(C)C)C(=O)NC(C)(C)C(=O)N[C@@H](C)C(=O)N[C@@H](CCCCN)C(=O)N[C@@H](CC(C)C)C(N)=O)NC(=O)[C@H](Cc2csc3ccccc23)NC(=O)[C@H](Cc2ccc(O)cc2)NC1=O)C(C)C)C(C)C [JBT00002518, Ac-FQSKpNVHVP[cY-Bta--Hcy-]RL-Aib-AKL-NH2] (Ac-FQSK[dP]NVHVP[dC]Y[Bta][hCys]RL[Aib]AKL-NH2; disulfide 11-14)
- 24 h Human Plasma Stability | Mean Remaining [%] [5]: 77.70%
- 24 h Mouse Plasma Stability | Mean Remaining [%] [5]: 28.30%

Compound: Ac-KKVQLHVSKRSKEMALARLYYKTSKK- NH2 (SEQ ID NO: 2301) (Ac-KKVQLHVSKRSKEMALARLYYKTSKK-NH2) [JBT0230]
- Progress Curves of Inhibition of FXa | % Inhibit ([…]) [6]: 0%

Compound: Ac-KRYKWF[CGMRDMKGTMSC]VWVKF-NH2 (SEQ ID NO: 1016) (Ac-KRYKWFCGMRDMKGTMSCVWVKF-NH2; disulfide 7-18; SMILES CSCC[C@@H]1NC(=O)CNC(=O)[C@@H](NC(=O)[C@H](Cc2ccccc2)NC(=O)[C@H](Cc2c[nH]c3ccccc23)NC(=O)[C@H](CCCCN)NC(=O)[C@H](Cc2ccc(O)cc2)NC(=O)[C@H](CCCNC(=N)N)NC(=O)[C@H](CCCCN)NC(C)=O)CSSC[C@@H](C(=O)N[C@H](C(=O)N[C@@H](Cc2c[nH]c3ccccc23)C(=O)N[C@H](C(=O)N[C@@H](CCCCN)C(=O)N[C@@H](Cc2ccccc2)C(N)=O)C(C)C)C(C)C)NC(=O)[C@H](CO)NC(=O)[C@H](CCSC)NC(=O)[C@H]([C@@H](C)O)NC(=O)CNC(=O)[C@H](CCCCN)NC(=O)[C@H](CCSC)NC(=O)[C@H](CC(=O)O)NC(=O)[C@H](CCCNC(=N)N)NC1=O) [JBT1474]
- Extrinsic Tenase Inhibition assay | % Inhibition @ […] [7]: 59%

Compound: Ac-KKQLHVSKRSKEMALARLYYKTKK-NH2 (SEQ ID NO: 2306) [JBT0235]
- Progress Curves of Inhibition of FXa | % Inhibit ([…]) [6]: 0%

Compound: Ac-SRYKWF[CGMKDMKGTMSC]VWVKF-NH2 (SEQ ID NO: 1017) (Ac-SRYKWFCGMKDMKGTMSCVWVKF-NH2; disulfide 7-18; SMILES CSCC[C@@H]1NC(=O)CNC(=O)[C@@H](NC(=O)[C@H](Cc2ccccc2)NC(=O)[C@H](Cc2c[nH]c3ccccc23)NC(=O)[C@H](CCCCN)NC(=O)[C@H](Cc2ccc(O)cc2)NC(=O)[C@H](CCCNC(=N)N)NC(=O)[C@H](CO)NC(C)=O)CSSC[C@@H](C(=O)N[C@H](C(=O)N[C@@H](Cc2c[nH]c3ccccc23)C(=O)N[C@H](C(=O)N[C@@H](CCCCN)C(=O)N[C@@H](Cc2ccccc2)C(N)=O)C(C)C)C(C)C)NC(=O)[C@H](CO)NC(=O)[C@H](CCSC)NC(=O)[C@H]([C@@H](C)O)NC(=O)CNC(=O)[C@H](CCCCN)NC(=O)[C@H](CCSC)NC(=O)[C@H](CC(=O)O)NC(=O)[C@H](CCCCN)NC1=O) [JBT1481]
- Extrinsic Tenase Inhibition assay | % Inhibition @ […] [7]: 55%

Compound: Ac-FQSKDNVFVTGYFERLRAKL-NH2 (SEQ ID NO: 33) [JBT0478]
- % Inhibition @ […] [2]: 21%
- % Inhibition @ […] [3]: 39%
- pEC50 [4]: 6.12

Compound: CCCCCC(=O)N[C@@H](Cc1ccccc1)C(=O)N[C@@H](CCC(N)=O)C(=O)N[C@@H](CO)C(=O)N[C@@H](CCCCN)C(=O)N1CCC[C@@H]1C(=O)N[C@@H](CSCNC(C)=O)C(=O)N[C@H](C(=O)N[C@@H](Cc1cnc[nH]1)C(=O)N[C@H](C(=O)N[C@@H](CC(=O)O)C(=O)N[C@H](C)C(=O)N[C@@H](Cc1ccc(O)cc1)C(=O)N[C@@H](Cc1ccccc1)C(=O)N[C@@H](CCC(=O)O)C(=O)N[C@@H](CCCNC(=N)N)C(=O)N[C@@H](CC(C)C)C(=O)NC(C)(C)C(=O)N[C@@H](C)C(=O)N[C@@H](CCCCN)C(=O)N[C@@H](CC(C)C)C(N)=O)C(C)(C)C)C(C)C [JBT2528, Hex-FQSKp-C(Acm)-VH-Tle-DaYFERL-Aib-AKL-NH2] (Hexanoyl-FQSK[dP]C(Acm)VH[Tle]D[dA]YFERL[Aib]AKL-NH2)
- percentage of initial amount of peptide remaining [8]: 35%
- remaining at 24 h [9]: 93%

Compound: Ac-FQSK-Nmg-AVFVFGYFARLRAKL-NH2 (SEQ ID NO: 206) (Ac-FQSK[Sar]AVFVFGYFARLRAKL-NH2; SMILES CC(=O)N[C@@H](Cc1ccccc1)C(=O)N[C@@H](CCC(N)=O)C(=O)N[C@@H](CO)C(=O)N[C@@H](CCCCN)C(=O)N(C)CC(=O)N[C@@H](C)C(=O)N[C@H](C(=O)N[C@@H](Cc1ccccc1)C(=O)N[C@H](C(=O)N[C@@H](Cc1ccccc1)C(=O)NCC(=O)N[C@@H](Cc1ccc(O)cc1)C(=O)N[C@@H](Cc1ccccc1)C(=O)N[C@@H](C)C(=O)N[C@@H](CCCNC(=N)N)C(=O)N[C@@H](CC(C)C)C(=O)N[C@@H](CCCNC(=N)N)C(=O)N[C@@H](C)C(=O)N[C@@H](CCCCN)C(=O)N[C@@H](CC(C)C)C(N)=O)C(C)C)C(C)C) [JBT0681]
- % Inhibition @ […] [10]: 52%
- % Inhibition @ […] [11]: 52%

Compound: CC(=O)N[C@@H](Cc1ccccc1)C(=O)N[C@@H](CCC(N)=O)C(=O)N[C@@H](CO)C(=O)N[C@@H](CCCCN)C(=O)N1CCC[C@@H]1C(=O)N[C@@H](CC(N)=O)C(=O)N[C@H](C(=O)N[C@@H](Cc1c[nH]cn1)C(=O)N[C@H](C(=O)N[C@@H](CC(=O)O)C(=O)N[C@H](C)C(=O)N[C@@H](Cc1ccc(O)cc1)C(=O)N[C@@H](Cc1ccccc1)C(=O)N[C@@H](CCC(=O)O)C(=O)N[C@@H](CCCNC(=N)N)C(=O)N[C@@H](CC(C)C)C(=O)NC(C)(C)C(=O)N[C@@H](C)C(=O)N[C@@H](CCCCN)C(=O)N[C@@H](CC(C)C)C(N)=O)C(C)C)C(C)C [JBT2414] (Ac-FQSK[dP]NVHVD[dA]YFERL[Aib]AKL-NH2)
- remaining at 24 h [9]: 100%

Compound: Ac-KKHVSKRSKEMALARLYYKTSKK-NH2 (SEQ ID NO: 2302) [JBT0231]
- Progress Curves of Inhibition of FXa | % Inhibit ([…]) [6]: 0%

Compound: Ac-FQSKGNVFVHGYFERLRAKL-NH2 (SEQ ID NO: 28) [JBT0473]
- % Inhibition @ […] [2]: 31%
- % Inhibition @ […] [3]: 45%
- pEC50 [4]: 6.60

Compound: CCCCCC(=O)N[C@@H](Cc1ccccc1)C(=O)N[C@@H](CCC(N)=O)C(=O)N[C@@H](CO)C(=O)N[C@@H](CCCCN)C(=O)N1CCC[C@@H]1C(=O)N[C@@H](CO)C(=O)N[C@H](C(=O)N[C@@H](Cc1c[nH]cn1)C(=O)N[C@H](C(=O)N[C@@H](CC(=O)O)C(=O)N[C@H](C)C(=O)N[C@@H](Cc1ccc(O)cc1)C(=O)N[C@@H](Cc1ccccc1)C(=O)N[C@@H](CCC(=O)O)C(=O)N[C@@H](CCCNC(=N)N)C(=O)N[C@@H](CC(C)C)C(=O)NC(C)(C)C(=O)N[C@@H](C)C(=O)N[C@@H](CCCCN)C(=O)N[C@@H](CC(C)C)C(N)=O)C(C)(C)C)C(C)C [JBT00002548, Hex-FQSKpSVH-Tle-DaYFERL-Aib-AKL-NH2]
- 24 h Human Plasma Stability | Mean Remaining [%] [1]: 98.85%
- 24 h Mouse Plasma Stability | Mean Remaining [%] [1]: 50.25%

Compound: Ac-SRYKWF[CGMRDMKGTLSC]VWVKF-NH2 (SEQ ID NO:1064) [JBT1506]
- Extrinsic Tenase Inhibition assay | % Inhibition @ […] [7]: 45%

Compound: Ac-KKYASFPLAVQLHVSKRSKEMAKK-NH2 [JBT0233]
- Progress Curves of Inhibition of FXa | % Inhibit ([…]) [6]: 6%

Compound: Ac-FQSKGNVFLFGYFERLRAKL-NH2 (SEQ ID NO: 694) [JBT0658]
- % Inhibition @ […] [10]: 6%

Compound: (Hex-FQSKp-Cys(Acm)-VH-Tle-DaYFERL-Aib-AKLC-NH2)- Mal-mPEG23 [JBT00002544]
- 24 h Human Plasma Stability | Mean Remaining [%] [1]: 54.00%
- 24 h Mouse Plasma Stability | Mean Remaining [%] [1]: 46.20%

Compound: Ac-KKLHVSKRSKEMALARLYYKTSKK-NH2 (SEQ ID NO: 2307) [JBT0236]
- Progress Curves of Inhibition of FXa | % Inhibit ([…]) [6]: 0%

Compound: Ac-FQSKGNVFVDGYFDRLRAKL-NH2 (SEQ ID NO: 31) [JBT0476]
- % Inhibition @ […] [2]: 38%
- % Inhibition @ […] [3]: 49%
- pEC50 [4]: 6.66

Compound: Ac-SFYKWF[CGMRDMKGTMSC]VWVKF-NH2 (SEQ ID NO:1010) [JBT1437]
- Extrinsic Tenase Inhibition assay | % Inhibition @ […] [7]: 53%

Compound: (Ac-FQSKpNVHVDGYFERL-Aib-AKLC-NH2)2-M2TriO [JBT00002522]
- 24 h Human Plasma Stability | Mean Remaining [%] [5]: 46.90%
- 24 h Mouse Plasma Stability | Mean Remaining [%] [5]: 18.05%
